Key:
[1] = target: T1, human D3 receptor (Homo sapiens, UniProt P35462); test: mitogenesis assay, [3H]thymidine incorporation in NG 108-15 cells expressing the D3 receptor; type: cell-based; conditions: for intrinsic activity (efficacy): relative to quinpirole (full agonist, efficacy 1), nafadotride is full antagonist (efficacy 0); for EC50: read-out: 50% effective concentration (EC50), mitogenesis
T1 construct: expressed in transfected cells; host or cells: NG 108-15 cells
Protocol: The activity of the derivatives of formula (I) according to the invention was evaluated with respect to cells expressing human recombinant dopamine receptors.
I-28 activity in vitro towards recombinant D3 receptor has been determined using a validated mitogenesis assay which was performed as follows:
After a 24 h-culture, cells were washed twice with culture medium without fetal calf serum and incubated for 16 hours with drugs in four replicates. Then [^3H]thymidine (1 μCi per well) was added for 2 hours and cells were harvested by vacuum filtration through Whatman GF/C fiber filters using an automated cell harvester (Brandel-Beckman) and rinsed 10 times with 200 μl 50 mM potassium phosphate buffer containing 150 mM NaCl. Radioactivity retained on filters was counted by liquid scintagraphy.

[2] = system: spontaneous locomotor activity of mice; test: spontaneous locomotor activity during habituation in mice; type: in vivo
Protocol: (§1) Activity of I-28 in vivo was assessed by using a simple test recently developed (Leriche et al. 2003 and international PCT application WO 2004/084952).
(§2) Male Swiss mice (Charles River, France), weighing 26-28 g, were housed six per cage (25×15×13 cm), on a 12 h/12 h light/dark cycle (lights on at 07:00 a.m.), with food and water freely available. Room temperature ranged from 20° C. to 22° C. and humidity varied between 55% and 65%.
(§3) Dizocilpine (MK-801) [(+)-5-methyl-10,11-dihydro-5H-dibenzo[a,d]cyclohepten-5,10-imine maleate] (Sigma) was dissolved in saline (0.9% NaCl). I-28 was dissolved in a few drops of HCl and distilled water, and the pH of the solution was adjusted to pH 5 using NaOH. The doses of I-28 are expressed as the weight of the base. The compounds were injected i.p. in a volume of 5 ml·kg^−1.
All experiments were conducted between 2.00 p.m. and 6.00 p.m., and the animals were kept in the test room at least 1 hour before recording their activity. The locomotor activity was measured in an actimeter that was composed of eight individual activity cages (30×15×18 cm, with sawdust on the floor) transected by infrared beams (Imetronic, Pessac, France). […]
Mice were injected with either Vehicle (distilled water pH 5) or I-28 (0.1, 0.3, 1 or 3 mg·kg^−1), and their horizontal locomotor activity was measured for 30 minutes (spontaneous locomotor activity). […]

[3] = target: T2, human recombinant dopamine D3 receptor (Homo sapiens, UniProt P35462); test: inhibition of [125I]iodosulpride binding, D3 receptor; conditions: for Ki: [125I]iodosulpride binding, cells expressing human recombinant receptor, read-out: affinity for the D3 receptor; for selectivity ratio, D2 receptor affinity relative to D3 receptor affinity: D2 vs D3, times lower affinity at D2
T2 construct: expressed in transfected cells
Protocol: (§4) The activity of the derivatives of formula (I) according to the invention was evaluated with respect to cells expressing human recombinant dopamine receptors. The inhibition constants (Ki) were measured by inhibition of [^125I]iodosulpride binding as described by Sokoloff et al. (1992). The degree of stimulation of the D3 receptor was determined by measuring the incorporation of [^3H]-thymidine in NG 108-15 cells expressing the D3 receptor (Pilon et al., 1994; Sautel et al., 1995).

[4] = system: MK-801-induced hyperactivity in mice; test: MK-801-induced hyperactivity in mice; type: in vivo
Protocol: as §1, §2, §3
All experiments were conducted between 2.00 p.m. and 6.00 p.m., and the animals were kept in the test room at least 1 hour before recording their activity. The locomotor activity was measured in an actimeter that was composed of eight individual activity cages (30×15×18 cm, with sawdust on the floor) transected by infrared beams (Imetronic, Pessac, France). Counts for forward horizontal activity were incremented each time the animal moved from one-half part of the cage to the other, corresponding to disruption of two crossed parallel beams distant of 14 cm. In time-course studies, counts were summed every 5 minute.
Mice were injected with either Vehicle (distilled water pH 5) or I-28 (0.1, 0.3, 1 or 3 mg·kg^−1), and their horizontal locomotor activity was measured for 30 minutes (spontaneous locomotor activity). They were subsequently treated with saline or MK-801 (0.12 mg·kg^−1) and the activity was measured for 1 hour (MK-801-induced locomotor activity).

[5] = target: T3, human recombinant dopamine D2 receptor (Homo sapiens, UniProt P14416); test: inhibition of [125I]iodosulpride binding, D2 receptor; conditions: cells expressing human recombinant receptor, read-out: affinity for the D2 receptor
T3 construct: expressed in transfected cells
Protocol: as §4

[6] = NG 108-15 cells transfected with the human D3 receptor

T2 sequence (P35462 whole entry): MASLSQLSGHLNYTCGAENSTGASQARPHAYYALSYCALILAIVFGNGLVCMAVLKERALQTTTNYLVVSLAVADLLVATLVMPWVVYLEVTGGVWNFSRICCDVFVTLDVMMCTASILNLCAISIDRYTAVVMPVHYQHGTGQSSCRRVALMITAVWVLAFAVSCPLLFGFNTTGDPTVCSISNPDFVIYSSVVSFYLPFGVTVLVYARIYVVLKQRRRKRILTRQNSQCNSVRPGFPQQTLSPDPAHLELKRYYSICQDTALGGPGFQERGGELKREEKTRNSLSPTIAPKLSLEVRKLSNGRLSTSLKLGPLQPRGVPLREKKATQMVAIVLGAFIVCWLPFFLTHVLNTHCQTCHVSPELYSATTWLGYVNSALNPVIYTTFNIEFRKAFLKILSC
T1 sequence (P35462 whole entry): as above
T3 sequence (P14416 whole entry): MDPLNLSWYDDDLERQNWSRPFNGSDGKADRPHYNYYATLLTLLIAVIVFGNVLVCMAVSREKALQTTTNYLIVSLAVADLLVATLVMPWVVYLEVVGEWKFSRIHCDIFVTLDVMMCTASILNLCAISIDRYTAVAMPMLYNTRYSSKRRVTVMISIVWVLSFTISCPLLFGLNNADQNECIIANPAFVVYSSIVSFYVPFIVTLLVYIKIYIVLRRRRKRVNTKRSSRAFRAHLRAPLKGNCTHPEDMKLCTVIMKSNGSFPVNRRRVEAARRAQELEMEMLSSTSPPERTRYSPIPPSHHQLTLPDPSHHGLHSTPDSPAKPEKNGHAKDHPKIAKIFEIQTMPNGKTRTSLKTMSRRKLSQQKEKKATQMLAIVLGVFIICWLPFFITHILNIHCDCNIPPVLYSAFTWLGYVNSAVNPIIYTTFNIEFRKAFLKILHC

SMILES | intrinsic activity (efficacy) [1] | maximal response, % of that produced by quinpirole ([1]; NG 108-15 cells transfected with the human D3 receptor, mean ±SEM) | EC50 [1, 6] | change of spontaneous activity ([2]; 3.0 mg·kg−1 i.p., P=0.042) | effect on spontaneous locomotor activity during habituation ([2]; i.p., doses below 3.0 mg·kg−1, 30 minutes) | Ki [3] | blood-brain barrier passage ([4]; inferred from activity after systemic administration in mice) | inhibition of MK-801-induced hyperactivity ([4]; mice, 0.3 mg·kg−1 i.p., P=0.031) | inhibition of MK-801-induced hyperactivity ([4]; mice, 1.0 mg·kg−1 i.p., P=0.0073) | inhibition of MK-801-induced hyperactivity ([4]; mice, 3.0 mg·kg−1 i.p., P=0.0012) | ED50, inhibition of MK-801-induced hyperactivity ([4]; mice, i.p., MK-801 0.12 mg·kg−1) | Ki [5] | selectivity ratio, D2 receptor affinity relative to D3 receptor affinity [3]
CCCCN1CCCC1CNC(=O)c1cc(C#N)c2ccccc2c1OC (centres unmarked) [nafadotride, reference compound] | 0 | – | – | – | – | – | – | – | – | – | – | – | –
N#Cc1cccc(N2CCN(CCCCNC(=O)C3=Cc4ccccc4CC3)CC2)c1 [I-28] | 0.37 | 37±2% | 6.3 nM | −25% | no effect | 2.1 nM | crosses the blood-brain barrier | 36.7% | 46.6% | 57.3% | about 0.3 mg·kg−1 | 318 nM | –
O=C(NCCCCN1CCN(c2cccc(O)c2)CC1)c1ccc2ccccc2c1 [reference compound] | – | – | – | – | – | 0.74 nM | – | – | – | – | – | 44 nM | 59
O=C(NCCCCN1CCN(c2cccc(O)c2)CC1)C1=Cc2ccccc2CC1 [Example 4, N-[4-[(3-hydroxyphenyl)piperazine-1-yl]butyl]-3,4-dihydronaphtalene-2-carboxamide] | 0.85 | – | 2.2 nM | – | – | 0.71 nM | – | – | – | – | – | – | 160

Source: patent US7875617B2, “3,4-dihydro-2-naphthamide derivatives as selective dopamine D3 ligands” (Institut National de la Sante et de la Recherche Medicale …, priority 2005, dated 2011)
